# Data reported in ChEMBL document CHEMBL1136334, “Synthesis and biological evaluation of 4-[(3-methyl-3H-imidazol-4-yl)-(2-phenylethynyl-benzyloxy)-methyl]-benzonitrile as novel farnesyltransferase inhibitor” (Bioorg Med Chem Lett, 2003).
# Experiments:
# [1] = target: Protein farnesyltransferase (Homo sapiens, UniProt P49354+P49356); assay: In vitro inhibition of the human FTase-catalyzed incorporation of [3H]FPP into recombinant Ras CVIM.; assay type: protein-complex assay
# [2] = target: Geranylgeranyl transferase type I (Homo sapiens, UniProt P49354+P53609); assay: In vitro inhibition of the human Geranylgeranyl transferase-catalyzed incorporation of [3H]GGPP into biotinylated peptide corresponding to the C-terminal of human K-Ras.; assay type: protein-complex assay
# [3] = target: Protein farnesyl/geranylgeranyl transferase (Homo sapiens) (UniProt P49354+P49356+P53609); assay: Selectivity ratio of IC50 Geranylgeranyl transferase to that of IC50 Farnesyltransferase; assay type: protein-complex assay
# NIH3T3 = assay: In vitro reduction of farnesylation in NIH-3T3H-ras cell line.; assay type: functional, cell-based; details: Mus musculus
SMILES,IC50 [1] [nM],IC50 [2] [nM],Selectivity [3],EC50 (NIH3T3) [nM]
Cn1cncc1C(OCc1ccc(C#N)cc1-c1ccc(-c2ccccc2)cc1)c1ccc(C#N)cc1 (centres undefined),1.1,150,136,< 0.1
Cn1cncc1C(OCc1ccc(C#N)cc1CCC(C)(C)C)c1ccc(C#N)cc1 (centres undefined),0.95,310,326,0.54
CCCCCCC#Cc1cc(C#N)ccc1COC(c1ccc(C#N)cc1)c1cncn1C (centres undefined),0.9,160,178,> 0.1
CCC/C=C/C=C/c1cc(C#N)ccc1COC(c1ccc(C#N)cc1)c1cncn1C (centres undefined),1.3,220,169,16.7
Cn1cncc1C(OCc1ccc(C#N)cc1C#Cc1ccc(-c2ccccc2)cc1)c1ccc(C#N)cc1 (centres undefined),10,> 10000,> 1000,> 0.1
Cn1cncc1C(OCc1ccc(C#N)cc1C#CCCCCO)c1ccc(C#N)cc1 (centres undefined),1.7,1600,941,20.9
Cn1cncc1C(OCc1ccc(C#N)cc1C#Cc1ccccc1)c1ccc(C#N)cc1 (centres undefined),0.95,1800,1900,0.1
Cn1cncc1C(OCc1ccc(C#N)cc1C#CC(C)(C)C)c1ccc(C#N)cc1 (centres undefined),0.62,490,790,76.9
Cn1cncc1C(OCc1ccc(C#N)cc1-c1ccc(C#N)cc1)c1ccc(C#N)cc1 (centres undefined),1.3,9000,6900,< 0.1
Cn1cncc1C(OCc1ccc(C#N)cc1C#Cc1cccc(O)c1)c1ccc(C#N)cc1 (centres undefined),1,1300,1300,> 0.1
Cn1cncc1C(OCc1ccc(C#N)cc1/C=C/c1ccccn1)c1ccc(C#N)cc1 (centres undefined),1.6,1800,1120,23.1
Cn1cncc1C(OCc1ccc(C#N)cc1C#CCCc1ccccc1)c1ccc(C#N)cc1 (centres undefined),1.4,540,386,130
Cn1cncc1C(OCc1ccc(C#N)cc1C#Cc1ccc(C#N)cc1)c1ccc(C#N)cc1 (centres undefined),0.63,124,196,11.6
Cn1cncc1C(OCc1ccc(C#N)cc1/C=C/c1ccc([N+](=O)[O-])cc1)c1ccc(C#N)cc1 (centres undefined),0.61,110,180,2.24
Cn1cncc1C(OCc1ccc(C#N)cc1C#Cc1ccccn1)c1ccc(C#N)cc1 (centres undefined),2.9,16000,5520,> 0.1
Cn1cncc1C(OCc1ccc(C#N)cc1C#Cc1ccc([N+](=O)[O-])cc1)c1ccc(C#N)cc1 (centres undefined),0.55,150,273,36
Cn1cncc1C(OCc1ccc(C#N)cc1C#CC1(O)CCCCC1)c1ccc(C#N)cc1 (centres undefined),0.87,845,971,1.93
Cn1cncc1C(OCc1ccc(C#N)cc1-c1ccccc1)c1ccc(C#N)cc1 (centres undefined),,,,140
